row,SMILES,melting point
1,Fc1ccccc1-c1nc2ncncc2[nH]1,267 to 271 °C
2,CN(C)C(=O)c1cccnc1S(=O)(=O)Cl,114 to 117 °C
3,CC(C)c1csc(NC(=O)OC(C)(C)C)c1C(=O)O,205 to 206 °C
4,COC(=O)N=C(N)SC,72 to 77 °C
5,COc1cc(C)cc(OC)c1-c1nc(=NO)c(=O)n(C)c2ccccc12,150 °C
6,C(=C(c1ccccc1)c1ccccc1)C1CCN(CCCCCCc2cncnc2)CC1,88 to 90 °C
7,COc1cc(/C=C/C=O)c([N+](=O)[O-])cc1OC,103 to 105 °C
8,OCCC1CC(n2nnc3c(NC4CC4c4ccccc4)nc(Sc4ccc(C(F)(F)F)cc4)nc32)C(O)C1O (configuration not stated),100 to 102 °C
9,O=C1CCNc2nc(Br)ccc21,196 to 197 °C
10,O=Cc1ccc2cc3c(cc2c1)sc1ccccc13,182 to 185 °C
11,CCC1C(C)=NN=C(c2ccccc2Cl)c2cc(OC)c(OC)cc21 (configuration not stated),129 to 131 °C
12,CC1CC(=O)NN=C1c1ccc(N=CNc2ccc(C3=NNC(=O)CC3C)cc2)cc1 (configuration not stated),306 to 308 °C
13,CNc1nc(Cl)c(OC(F)F)c(OC)n1,49 to 53 °C
14,CC1=C(C=O)C(C)(C)c2c(C)c(C)c(C)c(C)c21,176 °C
15,CCc1nc2c(N)nc3ccccc3c2n1CCCCNC(=O)C1CCCC1,179 to 180 °C
16,CC(C)(C)OC(=O)N1CCC[C@H]1CNc1ccc2ncc(I)n2n1,138 to 139 °C
17,OCc1cccc(-n2cccc2)c1,64 to 67 °C
18,N#Cc1ccc2[nH]cc(CCCCN3CCN(c4ccc5oc(C(=O)NO)cc5c4)CC3)c2c1,198 to 199 °C
19,CCn1cc(C(=O)O)c(=O)c2cc(F)c(N3CCNC(c4ccn(S(=O)(=O)c5ccccc5)c4)C3)cc21 (configuration not stated),120 °C
20,CCOC(=O)N1CCN(c2ccc(O)cc2)CC1,169 °C
21,COC(=O)C1=C(CC(=O)N2CCN(C)CC2)NC(CS(=O)c2ccccc2OC)=C(C(=O)OC)C1c1c(Cl)cccc1Cl (configuration not stated),160 °C
22,Cc1nc(N2CCN(Cc3ccccc3)S2(=O)=O)sc1C(=O)NCc1cccnc1,140 to 142 °C
23,CN(C)C(=O)Nc1ccc(Oc2ccc(Cl)nn2)cc1,173 to 174 °C
24,CCOC(=O)CCCCC(=O)OCC1=C(C(=O)OCC)C(c2ccccc2Cl)C(C(=O)OCC)=C(C)N1 (configuration not stated),91 to 92 °C

row,SMILES,melting point
1,O=C(c1cccs1)c1cc2c(c(Cl)c1Cl)OC(CO)C2 (configuration not stated),65 to 68 °C
2,Cc1ccc2c(c1)CCC1=C2CCC(=O)N1,204 to 205 °C
3,CC1(C(O)(Cc2ccc(F)cc2)Cn2cncn2)CC1(F)F (configuration not stated),114 °C
4,CCOC(=O)c1cn(-c2cc(N)c(F)c(F)c2F)c2cc(F)c(F)cc2c1=O,116 to 124 °C
5,CCOC(=O)COc1nnc(-c2ccc3c(c2)CCO3)o1,103 to 104 °C
6,CCc1ccc2c(O)c(-c3nnnn3C)cnc2c1,270 to 273 °C
7,COC(=O)Cn1c(C)cc(CC2CCCCC2)c([N+](=O)[O-])c1=O,128 °C
8,O=C1C2=C(CCCC2)C(=O)N1c1ccc(Cl)cc1F,81 to 82 °C
9,O=NSC1(CCOC(=O)CCC(=O)O)C2CC3CC(C2)CC1C3 (configuration not stated),63 to 70 °C
10,CC(=O)NCCC1CCc2ccc3c(c21)CCO3 (configuration not stated),78 to 79 °C
11,CNC(=C[N+](=O)[O-])NCCSCc1nccs1,103 to 104 °C
12,CC(=O)OC1C(C)OC(Oc2nc[nH]c2C(N)=O)C(OC(C)=O)C1OC(C)=O (configuration not stated),184 to 186 °C
13,CSc1ccc(C2=CC(=O)C(C)(C)O2)cc1,107 to 109 °C
14,Cc1nn2c(-c3cc(Cl)ccc3Cl)ccnc2c1C#N,234 to 236 °C
15,N#Cc1ncn2c1NCC=C2c1cccc(C(F)(F)F)c1,241 to 243 °C
16,N#CC1=C(C2CC2)Nc2n[nH]cc2C1c1cccc(C#N)c1Br (configuration not stated),> 250 °C
17,CCC1CCCCN1C(=O)C=Cc1c(-c2cccc(N(C)C)c2)nn2ccccc12 (configuration not stated),180 to 184 °C
18,O=C(NC(CO)Cc1ccc(O)cc1)OCC1CCCCC1 (configuration not stated),121 to 126 °C
19,COCN1C(C)=C(C(=O)OCOC(=O)C(C)(C)C)C(c2cccc(Cl)c2Cl)C(C(=O)OCOC(=O)C(C)(C)C)=C1C,103 to 104 °C
20,O=C1c2ccccc2C(=O)N1CCCCN1CCC(c2noc3cc(F)ccc23)CC1,144 to 146 °C
21,O=C(O)Cc1cccc(C(=O)c2cc3cc(C(=O)O)sc3s2)c1,283 °C
22,N#Cc1nc2cc3c(cc2[nH]1)OC(F)(Cl)C(F)(Cl)O3 (configuration not stated),> 230 °C
23,Nc1ncc(-c2ccc(F)c3ccccc23)o1,171 to 174 °C

# The next lines start with the values.
row,melting point,SMILES
1,140 °C,CC(OCc1cc2nc(C(F)(F)F)ccc2n1S(=O)(=O)c1ccccc1)C(=O)O (configuration not stated)
2,133 to 135 °C,CCC(=O)CCC1(C(N)=O)c2ccccc2-c2ccccc21
3,125 °C,COc1ccc(Cc2cccc(C(Cl)(C3=NCCCN3)c3ccccc3)c2)cc1 (configuration not stated)
4,270 to 274 °C,COc1ccc(-c2ccc(C(=O)O)cc2)cc1-c1cccc([N+](=O)[O-])c1
5,225 to 226 °C,c1ccc(-c2cc3ncnc(Nc4ccc5c(ccn5CCN5CCOCC5)c4)c3s2)cc1
6,187 to 188 °C,ON=Cc1ccc(-c2ccc(O)c(F)c2)c2ccccc12
7,202 to 203 °C,CS(=O)(=O)c1ccc(-c2c(-c3ccc(F)cc3)c(C(F)(F)F)nn2-c2ccccc2)cc1
8,186 to 189 °C,O=CN(O)C(CS(=O)(=O)c1ccc(-c2ccc(C(F)(F)F)cc2)cc1)c1cccnc1 (configuration not stated)
9,128 to 130 °C,Cn1c(CO)nnc1NCCCCOc1cccc(CN2CCCCC2)c1
10,117 to 118 °C,O=C(Nc1ccc([N+](=O)[O-])cc1)c1ccc(F)cc1
11,> 200 °C,O=C(O)c1ccc(S(=O)(=O)n2c(=O)[nH]c3cc(Cl)ccc3c2=O)cc1
12,193 to 195 °C,CC(O)c1cccc(-c2ccc3nc(-c4ccc(Cl)cc4)cn3c2)c1F (configuration not stated)
13,84 to 85 °C,COC(=O)C1(C)CC(C(=O)Nc2ccc(I)cc2)=NN1c1ccc(F)cc1 (configuration not stated)
14,100 °C,CCCNC(=O)c1ccc2c(c1)N(C(C)CN(C)CC)c1ccccc1S2 (racemic)
15,184 to 185 °C,NC(=O)C(NC(=O)OCc1ccccc1)c1ccc(CC2CC2)[nH]1 (configuration not stated)
16,246 to 250 °C,O=C(CCc1ccccc1)c1cc2ccncc2[nH]1
17,118 to 120 °C,C=C(C)Cn1c(=O)n(C)c(=O)c2c(Sc3ccccn3)n(Cc3cccc4ccccc34)nc21
18,120 to 122 °C,C=CC[C@@H]1C[C@@H](COc2ccc(-c3ccc(C#N)cc3)cc2)N(Cc2ccc(OC)cc2)C1=O
19,158 to 160 °C,CC(=O)c1ccc(OCCOc2ccc3ccccc3c2)c([N+](=O)[O-])c1
20,205 to 208 °C,CC(C)NC(=O)c1cc(Oc2ccc3c(C(=O)Nc4cccc(C(F)(F)F)c4)cccc3c2)ncn1
21,188 to 190 °C,O=C(O)C[C@H](NC(=O)OCc1ccccc1)C(=O)Nc1cc(Cc2n[nH]c(=O)c3ccccc23)ccc1F
22,76 to 77 °C,OCCCc1ccccc1OCc1coc(/C=C/c2ccccc2)n1
23,158 to 159 °C,Cc1c(Cc2cccc(C(F)(F)F)c2)oc2c(-c3cccc(C(=O)NCCO)c3)cccc12
24,77 to 79 °C,CCCCCCCCCCCCCCCCCCOc1cccc(C(=O)C(=O)O)c1
25,127 to 128 °C,O=C1c2ccccc2C(=O)N1CC(=O)N1c2ccccc2N(Cc2ccccc2)C(=O)CC1c1ccccc1 (configuration not stated)

row,melting point,SMILES
1,154 to 156 °C,COc1ccccc1OC1CCN(CCCNC(=O)c2cccc3c(=O)c(C)c(-c4ccccc4)oc23)CC1
2,154 to 156 °C,CS(=O)(=O)c1ccc(-c2cnn(CC(F)=C(F)F)c(=O)c2-c2ccc(F)cc2)cc1
3,121 to 122 °C,CCOC(=O)c1cn(Cc2ccccc2)nc1OCc1ccc(OCc2nc(-c3ccco3)oc2C)c(OCC)c1
4,147 to 149 °C,COCCNC(=O)c1nc(NC(C)=O)c2cc(Cc3ccc(F)cc3)cnc2c1OCc1ccccc1
5,107 to 109 °C,CCCCC(Cc1ccc(OCCNC(=O)c2ccc(-c3cccc(OC)c3)cc2)cc1)C(=O)O (configuration not stated)
6,116 to 119 °C,CC(=O)Nc1sc2c(c1C(=O)c1ccccc1)CCCC2
7,132 to 134 °C,CC(=O)Oc1ccc(N2C(=O)CC(=O)N2c2ccccc2)cc1
8,242 to 243 °C,CCCCc1ccc(C(=O)NCc2c[nH]c(=S)n2[C@H]2CCc3c(F)cc(F)cc3C2)cc1
9,63 to 66 °C,FC(F)(F)c1ccc(Oc2ccc(OCc3ccccc3)cc2)c(Cl)c1
10,170 to 172 °C,COC(=O)c1ccc(CNc2cc(C(=O)Nc3ccccc3)ccc2OC)cc1
11,226 to 228 °C,COC(=O)[C@H]1C[C@H](NC(=O)Cc2ccccc2)c2c(Cl)cc(Cl)cc2N1 (relative stereo)
12,277 to 279 °C,O=C(O)COc1ccc2c(=O)c3c(oc2c1)C(=Cc1ccccc1)CC3
13,101 °C,COC(=O)[C@H](Cc1ccc(O)cc1)NC(=O)Cc1ccccc1
14,177 to 179 °C,CC(C)c1cccc(C(C)C)c1NC(=O)NCC1(c2ccc(-c3ccccc3)cc2)CCC1
15,64.7 to 65.8 °C,COc1ccc(C(=O)c2cccc(C)c2Cl)cc1
16,152 to 154 °C,O=C(O)c1ccc(Cl)cc1C(=O)NCCCCc1cccnc1
17,126 °C,COc1ccc(C2=NN(Cc3ccc([N+](=O)[O-])cc3)C(=O)CC2)cc1OC
18,163 to 165 °C,COc1ccc(CCNc2c(-c3ccc(S(C)(=O)=O)cc3)cnn(CC(F)(F)F)c2=O)cc1OC
19,175 to 190 °C,CNC(=O)CC(S)C(CC(C)C)C(=O)NC(Cc1ccc(OC)cc1)C(=O)NC (configuration not stated)
20,93.5 to 95 °C,Cc1cccc2c1nc(COc1ccc(Cl)cc1)n2CCC(Cc1ccccc1)C(=O)N1CCCCC1 (configuration not stated)
21,274 to 277 °C,CC1(C)CCC(C)(C)c2cc(C(=O)NNC(=O)c3ccc(C#N)cc3)ccc21
22,124 to 125 °C,CCC#CCOc1cc(/C=C/C(=O)Nc2ccccc2C(=O)O)ccc1OC
23,260 °C,NS(=O)(=O)c1cccc(-c2cn(-c3nc(-c4ccc(F)cc4)cc(C(F)(F)F)n3)cn2)c1
24,182 to 183 °C,Cc1c(NC(=O)CC(C)(C)C)c(C)c2c(c1-c1cccc(F)c1)OCC2c1ccc(C(C)C)cc1 (configuration not stated)
25,200 to 201 °C,COCc1ccc(-c2ccc3nnn(Cc4ccc5ncccc5c4)c3n2)cc1F
